Experimental findings from patent US20260374773A1, “MULTI-CYCLIC IRAK AND FLT3 INHIBITING COMPOUNDS AND USES THEREOF” (CHILDREN'S HOSPITAL MEDICAL CENTER, priority 2022, published 2026) are described below.

The first experiment has as its system THP1 cells. Description: Combination drug screening with venetoclax, Cell Titer Glo, THP1. In kind it is cell-based. Particulars: compound 0-0.1 μM, venetoclax 0-20 μM, 10 × 10, 48 h, negative = synergy. The protocol: Combination drug therapy has the potential to produce enhanced effects with lower side effects not obtained using either agent alone, or beyond the additive effect of the different concentrations of the two different agents. To determine whether enhanced effects are observed in different drug combinations, combination drug screening was performed as previously described (Mathews-Griner, L. A. et al., Proc. Nat. Acad. Sci., 2014, 111:2349-2354; Lin, G. L. et al., Sci. Trans. Med., 2019, 11: eaaw0064). Briefly, 10 nL of compounds were acoustically dispensed into 1536-well white polystyrene tissue culture-treated plates with an Echo 550 acoustic liquid handler (Labcyte). Cells were then added to compound-containing plates at a density of 500-cells/well in 5 μL of medium. A 10-point custom concentration range was used for all listed drugs in a 10×10 matrix. Plates were incubated for 48 hours at standard incubator conditions covered by a stainless steel gasketed lid to prevent evaporation. 48 hours post compound addition, 3 μL of Cell Titer Glo (Promega) were added to each well and plates were incubated at room temperature for 15 minutes with the stainless-steel lid in place. Luminescence readings were taken using a Viewlux imager (PerkinElmer) with a 2 second exposure time per plate.
Each compound was studied in combination with venetoclax at two concentration ranges of compound and venetoclax, respectively (for a total of 4 combination dose-response curves). The dose combinations that yielded the optimal synergy score, measured as excess HSA, which are reported in Tables 23 and 24 for the FLT3 mutant cell line MOLM14 (D835Y) and the FLT3 WT cell line THP1, respectively.
Table 24 provides combination outcomes for representative compounds with venetoclax in the Cell Titer Glo assay in THP1 (FLT3 wild type) cells at 48 hours. The table provides relative excess HSA values for compounds of the disclosure used in combination with venetoclax compared to gilteritinib hemifumarate used in combination with venetoclax. A negative excess HSA score illustrates that the drug combination is better than either drug alone, wherein greater synergy is observed at larger negative values of the excess HSA score.
Excess HSA is a measure of synergy vs. additivity or antagonism, wherein a negative excess HSA value is indicative of synergy. More information on excess HSA scores can be found in Vlot, Anna H. C. et al., Drug Discovery Today, 2019, 24(12):2286-2298. […] However, different methodologies may yield different numerical scores, and different definitions of what constitutes a deviation from mere additivity vs true drug synergy. The large negative excess HSA values provided in Tables 23 and 24 illustrate that multiple members of this structural class synergize with venetoclax. The degree to which combination therapy has to potential to produce enhanced effects with lower side effects not obtained using either agent alone, or beyond the additive effect of the different concentrations of the two different agents depends on the nature of the drugs used in the combination, and the specific doses/concentrations at which they are ultimately used in the therapeutic regimen. A negative excess HSA score illustrates that the drug combination is better than either drug alone (at the concentrations being studied). […] However, the utility in certain drug combinations vs. others should not be distinguished based on cutoffs between excess HSA scores, because the score itself is only a relative indicator that is completely dependent on experimental design and is not an absolute number. Furthermore, the concept of what constitutes clinically meaningful drug synergy is something that is still being debated, not only between pharmacologists and physicians, but amongst pharmacologists themselves. […]
In general terms: ATP-based viability assays read luminescence as a measure of living cells.
Take `COc1cn2ncc(-c3nc(N[C@@H]4CCCNC4)ccc3F)c2nc1C1CC1` [Compound 2, (R)-6-(5-cyclopropyl-6-methoxypyrazolo[1,5-a]pyrimidin-3-yl)-5-fluoro-N-(piperidin-3-yl)pyridin-2-amine]: the “Excess HSA” value is reported as −990.8.
Same read-out and setting: with `COc1cn2ncc(-c3nc(N[C@@H]4CCCNC4)ncc3F)c2nc1C1CC1` [Compound 14a, (R)-4-(5-cyclopropyl-6-methoxypyrazolo[1,5-a]pyrimidin-3-yl)-5-fluoro-N-(piperidin-3-yl)pyrimidin-2-amine] the figure was −1210.

Still in this experiment, the particulars now being: compound 0-10 μM, venetoclax 0-2 μM, 10 × 10, 48 h, negative = synergy.
Regarding `COc1cn2ncc(-c3nc(N[C@H]4CNCC[C@@H]4F)ncc3F)c2nc1C(C)(C)O` [Compound 6a, 2-(3-(5-fluoro-2-(((3S,4S)-4-fluoropiperidin-3-yl)amino)pyrimidin-4-yl)-6-methoxypyrazolo[1,5-a]pyrimidin-5-yl)propan-2-ol], the “Excess HSA” value is listed as −786.4.
Still for that read-out and setting: the value for `COc1cn2ncc(-c3nc(N[C@H]4CNCC[C@@H]4F)ncc3F)c2nc1C1CC1` [Compound 15a, 4-(5-cyclopropyl-6-methoxypyrazolo[1,5-a]pyrimidin-3-yl)-5-fluoro-N-((3S,4S)-4-fluoropiperidin-3-yl)pyrimidin-2-amine] was −861.1; that for `COc1cn2ncc(-c3nc(N[C@H]4CNCC[C@@H]4F)c(F)cc3F)c2nc1C1CC1` [Compound 22, 6-(5-cyclopropyl-6-methoxypyrazolo[1,5-a]pyrimidin-3-yl)-3,5-difluoro-N-((3S,4S)-4-fluoropiperidin-3-yl)pyridin-2-amine] was −850.4; that for `COc1cn2ncc(-c3ccnc(N[C@H]4CNCC[C@@H]4F)n3)c2nc1C(C)(C)O` [Compound 3a, 2-(3-(2-(((3S,4S)-4-fluoropiperidin-3-yl)amino)pyrimidin-4-yl)-6-methoxypyrazolo[1,5-a]pyrimidin-5-yl)propan-2-ol] was −1645.

The same experiment, now with this note: compound 0-10 μM, venetoclax 0-20 μM, 10 × 10, 48 h, negative = synergy.
Regarding `COc1cn2ncc(-c3nc(N[C@H]4CNC[C@@H]4F)c(F)cc3F)c2nc1C1CC1` [Compound 24, 6-(5-cyclopropyl-6-methoxypyrazolo[1,5-a]pyrimidin-3-yl)-3,5-difluoro-N-((3S,4S)-4-fluoropyrrolidin-3-yl)pyridin-2-amine], the “Excess HSA” value is reported as −1766.
Same read-out and setting: the value for `COc1cn2ncc(-c3cncc(N[C@H]4CNCC[C@@H]4F)n3)c2nc1C1CC1` [Compound 12a, 6-(5-cyclopropyl-6-methoxypyrazolo[1,5-a]pyrimidin-3-yl)-N-((3S,4S)-4-fluoropiperidin-3-yl)pyrazin-2-amine] was −1869.
Still for that read-out and setting: with `COc1cn2ncc(-c3ccnc(N[C@H]4CNCC[C@@H]4F)n3)c2nc1C1CC1` [Compound 7a, 4-(5-cyclopropyl-6-methoxypyrazolo[1,5-a]pyrimidin-3-yl)-N-((3S,4S)-4-fluoropiperidin-3-yl)pyrimidin-2-amine] the figure was −1947.
